One data set addresses HIV-1 capsid (Human immunodeficiency virus type 1 group M subtype B, UniProt P04591). The note with it: read-out: Binding affinity (Kd); cited from earlier work.
The subject of data set [1] is HIV-1. The note with it: cited from earlier work.
The test system of a further data set is HIV-1 RU570. The data set can be described thus: Antiviral activity (p24) against primary isolate RU570 in PBMC. Type of data set: cell-based. The note with it: Human immunodeficiency virus 1, RU570, subtype G, R5, primary isolate. As for the experimental part:
(§1) Peripheral blood mononuclear cells (PBMCs) were isolated from the blood of healthy donors by standard density gradient centrifugation using Histopaque-1077 (Sigma). The cells were cultured at 37° C. for 2 hours. Nonadherent cells were collected and resuspended at 5×10^6 cells/ml RPMI-1640 medium containing 10% FBS, 5 μg/ml PHA, and 100 U/ml IL-2 (Sigma), followed by incubation at 37° C. for 3 days. The PHA-stimulated cells (5×10^4 cells/well) were infected with primary HIV-1 isolates at 500 TCID50 (0.01 MOI) in the absence or presence of small molecule inhibitor at graded concentrations. Culture media were changed every 3 days and replaced with fresh media containing freshly prepared inhibitor. The supernatants were collected 7 days post-infection and tested for p24 antigen by ELISA. The inhibition of p24 production in PBMC was measured over a range of concentrations and the concentration required to inhibit 50% (IC50) of the p24 production was calculated by the GraphPad Prism software.
(§2) The molecules in Tables 3 include the calculated IC50 values and use “A1” to denote IC50<10 μM and “B1” to denote IC50>10 μM and “C1” to denote CC50<50 μM and “D1” to denote […].

Another data set relates to HIV-1 93IN101. The data set can be described thus: Antiviral activity (p24) against primary isolate 93IN101 in PBMC. It counts as cell-based. The note with it: Human immunodeficiency virus 1, 93IN101, subtype C, R5, primary isolate. As for the experimental part:
as §1, §2

Another data set concerns HIV-1 BaL. The data set can be described thus: Antiviral activity (p24) against HIV-1 BaL in PBMC. Type of data set: cell-based. The note with it: Human immunodeficiency virus 1, subtype B, R5, laboratory strain. As for the experimental part: (§3) AZT was used as a positive control in the infectivity assays. In brief, 1×10^4 MT-2 cells (lymphocytes) were infected with HIV-1 at 100 TCID50 (50% tissue culture infective dose, 0.01 MOI [multiplicity of infection]) in 200 μL RPMI 1640 medium containing 10% FBS in the presence or absence of small molecules at graded concentrations overnight. The culture supernatants were then removed and fresh media containing freshly prepared test compounds were added. On the fourth day post-infection, 100 μL of culture supernatants were collected from each well, mixed with equal volume of 5% TRITON X-100® and tested for p24 antigen by ELISA®. The IC50 values were calculated by the GraphPad Prism software (GraphPad Software®, Inc.) and the values were classified as IC50<10 μM and IC50>10 μM.
as §1, §2

The next data set deals with HIV-1 92US657. As to the kind of experiment: Antiviral activity (p24) against primary isolate 92US657 in PBMC. Type of data set: cell-based. The note with it: Human immunodeficiency virus 1, 92US657, subtype B, R5, primary isolate. As for the experimental part:
as §1, §2

The subject of the next data set is HIV-1 BCF02. As to the kind of experiment: Antiviral activity (p24) against primary isolate BCF02 in PBMC. It counts as cell-based. The note with it: Human immunodeficiency virus 1, BCF02, Group (O), R5, primary isolate. Here is the method:
as §1, §2

In another data set the test system is HIV-1 RF. The data set can be described thus: Antiviral activity (p24) against HIV-1 RF in MT-2. It counts as cell-based. The note with it: Human immunodeficiency virus 1, subtype B, MT-2, X4, laboratory strain. As for the experimental part:
as §3, §2

A further data set relates to HIV-1 MN. As to the kind of experiment: Antiviral activity (p24) against HIV-1 MN in MT-2. It counts as cell-based. Particulars: Human immunodeficiency virus 1, subtype B, MT-2, X4, laboratory strain. As for the experimental part: as §3, §2
A further data set has as its system HIV-1 SF2. The data set can be described thus: Antiviral activity (p24) against HIV-1 SF2 in MT-2. It counts as cell-based. Particulars: Human immunodeficiency virus 1; SF2, subtype B, MT-2, R5X4, laboratory strain. As for the experimental part: as §3, §2
The test system of the next data set is HIV-1 AZT-R. As to the kind of experiment: Antiviral activity (p24) against RT-resistant isolate AZT-R in MT-2. It counts as cell-based. The note with it: Human immunodeficiency virus 1. As for the experimental part:
as §3, §2

The subject of the next data set is HIV-1 93Br020. The data set can be described thus: Antiviral activity (p24) against primary isolate 93Br020 in PBMC. Type of data set: cell-based. Particulars: Human immunodeficiency virus 1, 93Br020, subtype F, R5X4, primary isolate. Here is the method: as §1, §2
The test system of data set [2] is HIV-1. As to the kind of experiment: Inhibition of HIV-1 infectivity (p24 ELISA) in MT-2 cells, laboratory-adapted HIV-1 strains. It counts as cell-based. Particulars: for IC50: Human immunodeficiency virus 1, MT2, 96 h, MT-2 cells, p24 ELISA day 4; for Activity against a broad range of HIV-1 laboratory-adapted and primary isolates: including one RT-inhibitor-resistant and one protease-inhibitor-resistant isolate (summary of Table 3). As for the experimental part: as §3, with “ELISA®.” for “ELISA®. The IC50 values were calculated by the GraphPad Prism software (GraphPad Software®, Inc.) and the values were classified as IC50<10 μM and IC50>10 μM.”
(In general: ELISA stands for enzyme-linked immunosorbent assay.)

In the next data set the test system is HIV-1RF/L-323-12-3. As to the kind of experiment: Antiviral activity (p24) against protease resistant isolate HIV-1RF/L-323-12-3 in MT-2. It counts as cell-based. Particulars: Human immunodeficiency virus 1. As for the experimental part:
as §3, §2

The nature of data set [3]: XTT cytotoxicity assay in PBMC. It counts as cell-based. Particulars: human. Here is the method:
Cytotoxicity of small molecules in cultures with MT-2 cells and PBMC was measured by the tetrazolium hydroxide XTT (sodium 3′-(1-(phenylamino)-carbonyl)-3,4-tetrazolium-bis(4-methoxy-6-nitro) benzenesulfonic acid hydrate) cytotoxicity assay, as previously described (Jiang et al., 2004). Briefly, for MT-2 cells, 100 μL of small molecule at graded concentrations was added to an equal volume of cells (5×10^4 cells/ml) in 96-well plates followed by incubation at 37° C. for 4 days, which ran parallel to the neutralization assay in MT-2 (except medium was added instead of virus). In the case of PBMC, 2.5×10^5 cells/mL were used and the cytotoxicity was measured after 7 days. After addition of XTT (PolySciences, Inc.), the soluble intracellular formazan was quantitated calorimetrically at 450 nm 4 hours later with a reference at 620 nm. The CC50 values were calculated.
On the technique in general: Tetrazolium assays rely on reduction of a dye to a coloured formazan, in cell work by metabolically active cells.

Data set [4] has as its system Gag-Pol expressing 293 T cells. As to the kind of experiment: Cell-based mature particle formation (VLP), electron microscopy of Gag-Pol transfected 293 T cells. Further details: species or system HIV-1. Here is the method: In the cell-based system, the impact of NYAD-S6 on virus-like particle (VLP) release and morphology was analyzed by electron microscopy one day post-transfection with plasmid encoding Gag-Pol. Forty thousand 293 T cells were seeded per well in a 6-well plate on the day before transfection. […] The cells were then fixed in 3% glutaraldehyde in 100 mM sodium cacodylate for 1 hour and post-fixed in 1% OsO4 in 100 mM sodium cacodylate for another 1 hour. Specimens were then dehydrated through graded series of ethanol solutions and embedded in EPON® media. After staining with uranyl acetate and lead citrate, ultra-thin sections were examined under a Philips EM410 electron microscope.
In the case of untreated cells transfected with a Gag-Pol expression vector, a large number of mature particles containing electron-dense core structures were found (FIG. 2A).

The subject of a further data set is HIV-1 IIIB. The data set can be described thus: Antiviral activity (p24) against HIV-1 IIIB in MT-2. Type of data set: cell-based. Particulars: Human immunodeficiency virus 1, subtype B, MT-2, X4, laboratory strain. Here is the method:
as §3, §2

A short description of data set [5]: XTT cytotoxicity assay in MT-2 cells. It counts as cell-based. Particulars: human; for CC50 at 4 days: MT-2 cells; for CC50: cell type not given. As for the experimental part:
Briefly, for MT-2 cells, 100 μL of small molecule at graded concentrations was added to an equal volume of cells (5×10^4 cells/ml) in 96-well plates followed by incubation at 37° C. for 4 days, which ran parallel to the neutralization assay in MT-2 (except medium was added instead of virus). In the case of PBMC, 2.5×10^5 cells/mL were used and the cytotoxicity was measured after 7 days. After addition of XTT (PolySciences, Inc.), the soluble intracellular formazan was quantitated calorimetrically at 450 nm 4 hours later with a reference at 620 nm. The CC50 values were calculated.

Data set [6] concerns HIV-1. The note with it: cited from earlier work. The source holds these as a separate data set.
The mark [7] stands for this setting: Table 2, formula II, read-out: CC50.

Where two headings read alike, the source gives them in different places.

For the compound `Cc1ccc(NC(=O)NCCSCc2ccc(CN(C)C)o2)cc1Cl` [CAP-1], the Kd at HIV-1 capsid was about 800 µM. Further, the “HIV-1 inhibition in viral infectivity assays” value in the data set with HIV-1 [1] is reported as “dose-dependent HIV-1 inhibition”.
Consider `Cc1ccc2[nH]c(=O)c(CN(Cc3ccco3)C(=O)c3ccc(Cl)cc3)cc2c1` [NYAD-S6], for which the IC50 in the data set on HIV-1 RU570, in the data set on HIV-1 93IN101, in the data set with HIV-1 BaL, in the data set with HIV-1 92US657, with HIV-1 BCF02 and in the data set on HIV-1 RF was under 10 µM in each case. Besides, the IC50 with HIV-1 MN was under 10 µM; with HIV-1 SF2 it was under 10 µM; in the data set on HIV-1 AZT-R, under 10 µM; in the data set on HIV-1 93Br020 it was under 10 µM; in the data set with HIV-1 [2] (read-out: IC50 (concentration that provides 50% inhibition of HIV-1 p24), Table 1, formula I) it was under 10 µM; in the data set with HIV-1RF/L-323-12-3, under 10 µM. The compound further returned an IC50 with HIV-1 IIIB of under 10 µM. Moreover, the “Activity against a broad range of HIV-1 laboratory-adapted and primary isolates” value (shortened to “Activity against a broad range”) in the data set on HIV-1 [2] was “consistently potent activity”. Also, the CC50 at 7 days in [3] was over 50 µM. Also, the “Formation of electron-dense core structures” value in data set [4] (0.4 μM), in [4] (2 μM) and in data set [4] (10 μM) was “markedly inhibited” throughout. For the same compound, the Mature particle formation entry in [4] (FIGS. 2A-D, 0.4, 2 and 10 μM vs control) is “dramatic decrease in mature particle formation”. The CC50 at 4 days in [5] was over 50 µM. Besides, the CC50 in data set [5] (Table 1, formula I, read-out: CC50 (concentration that causes 50% cytotoxicity)) is over 10 µM.
With `Cc1cc(=O)n2c3ccccc3n(CC(O)CNc3ccc(F)cc3)c2c1C#N` (centres unmarked) [NYAD-S8], the IC50 was under 10 µM in the data set on HIV-1 RU570; under 10 µM in the data set on HIV-1 93IN101; under 10 µM in the data set with HIV-1 BaL; under 10 µM in the data set on HIV-1 92US657; over 10 µM in the data set with HIV-1 BCF02; under 10 µM in the data set on HIV-1 RF. The IC50 is under 10 µM in the data set with HIV-1 MN; under 10 µM in the data set on HIV-1 SF2; under 10 µM in the data set with HIV-1 AZT-R; under 10 µM in the data set with HIV-1 93Br020; over 10 µM in the data set on HIV-1 [2] (Table 2, formula II); under 10 µM in the data set with HIV-1RF/L-323-12-3. This compound gave an IC50 in the data set with HIV-1 IIIB of over 10 µM. The “Activity against a broad range” value in the data set on HIV-1 [2] is “consistently potent activity”. The same compound displayed a CC50 at 7 days in [3] of over 50 µM. In data set [5], this compound had a CC50 at 4 days of over 50 µM. Besides, the CC50 in [5] (setting [7]) was over 10 µM.
Regarding `Cc1cc(=O)n2c3ccccc3n(CC(O)CN3CCN(C(c4ccccc4)c4ccccc4)CC3)c2c1C#N` (centres unmarked) [NYAD-S17], the IC50 in the data set with HIV-1 RU570, in the data set with HIV-1 93IN101, in the data set on HIV-1 BaL, in the data set on HIV-1 92US657, with HIV-1 BCF02 and in the data set with HIV-1 RF was under 10 µM throughout. Also, the IC50 in the data set with HIV-1 MN is under 10 µM; in the data set on HIV-1 SF2, under 10 µM; in the data set on HIV-1 AZT-R, under 10 µM; with HIV-1 [2] (Table 2, formula II) it was under 10 µM; with HIV-1 IIIB, under 10 µM. In addition, in the data set on HIV-1 [2], the “Activity against a broad range” value is listed as “consistently potent activity”. The compound also came in with a CC50 at 7 days in data set [3] of under 50 µM. In data set [5], the CC50 at 4 days is under 50 µM. For the same compound, in data set [5] (setting [7]), the CC50 is over 10 µM.
For the compound `C=C(C)[C@@H]1CC[C@]2(C(=O)O)CC[C@]3(C)[C@H](CC[C@@H]4[C@@]5(C)CC[C@H](OC(=O)CC(C)(C)C(=O)O)C(C)(C)[C@@H]5CC[C@]43C)[C@@H]12` [PA-457], the “Antiviral potency in cell culture” value in the data set on HIV-1 [6] was “low nM”.

A word on the Kd: it is the equilibrium constant for the complex coming apart.

The values are drawn from patent US8299093B2, “Small molecule inhibitors of retroviral assembly and maturation” (New York Blood Center, Inc., priority 2008, dated 2012).
